Holding throughout (assay type): biochemical
The target in one test is T1, Aurora-A (Homo sapiens, UniProt O14965).
T1 construct: host or cells: Sf9 insect cells (baculovirus)
T1 sequence (O14965 1-403): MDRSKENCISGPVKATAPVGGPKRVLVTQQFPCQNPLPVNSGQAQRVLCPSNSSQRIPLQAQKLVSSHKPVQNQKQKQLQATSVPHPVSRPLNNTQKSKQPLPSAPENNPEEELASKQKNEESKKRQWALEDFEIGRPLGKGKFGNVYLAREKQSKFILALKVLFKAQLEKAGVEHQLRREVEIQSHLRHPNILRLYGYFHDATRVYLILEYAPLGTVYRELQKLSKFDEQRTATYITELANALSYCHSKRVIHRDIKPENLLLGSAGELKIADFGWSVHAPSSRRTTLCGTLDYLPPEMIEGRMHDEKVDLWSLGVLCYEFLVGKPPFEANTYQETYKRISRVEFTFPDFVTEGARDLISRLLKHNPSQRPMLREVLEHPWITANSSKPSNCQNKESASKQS
Briefly: Radiometric protein kinase assay, Aurora-A. As to conditions: 1 μM ATP; read-out: Inhibitory activity (IC50:μM) Aurora-A. From the text: (§1) All protein kinases were expressed in Sf9 insect cells as human recombinant GST-fusion proteins or His-tagged proteins by means of the baculovirus expression system. Kinases were purified by affinity chromatography using either GSH-agarose (Sigma) or Ni-NTH-agarose (Qiagen). The purity of each kinase was checked by SDS-PAGE/silver staining and the identity of each kinase was verified by western blot analysis with kinase specific antibodies or by mass spectroscopy.
(§2) A radiometric protein kinase assay (^33PanQinase® Activity Assay) was used for measuring the kinase activity of the 24 protein kinases. All kinase assays were performed in 96-well FlashPlates™ from Perkin Elmer (Boston, Mass., USA) in a 50 μl reaction volume. The reaction cocktail was pipetted in 4 steps in the following order: • 20 μl of assay buffer • 5 μl of ATP solution (in H2O) • 5 μl of test compound (in 10% DMSO) • 10 μl of substrate/10 […] of enzyme solution (premixed)
(§3) The assay for all enzymes contained 60 mM HEPES-NaOH, pH 7.5, 3 mM MgCl2, 3 mM MnCl2, 3 μM Na-orthovanadate, 1.2 mM DTT, 50 μg/ml PEG20000, 1 μM [γ-^33P]-ATP (approx. 5×10^05 cpm per well).
(§4) For the 24 kinase assays, the following amounts of enzyme and substrate were used per well:
(§5) The reaction cocktails were incubated at 30° C. for 80 minutes. The reaction was stopped with 50 μl of 2% (v/v) H3PO4, plates were aspirated and washed two times with 200 μl of 0.9% (w/v) NaCl or 200 μl H2O. Incorporation of ^33Pi was determined with a microplate scintillation counter (Microbeta Trilux, Wallac).
(§6) The median value of the counts in column 1 (n=8) of each assay plate was defined as “low control”. This value reflects unspecific binding of radioactivity to the plate in the absence of a protein kinase but in the presence of the substrate. The median value of the counts in column 7 of each assay plate (n=8) was taken as the “high control”, i.e. full activity in the absence of any inhibitor. The difference between high and low control was taken as 100% activity.
(§7) As part of the data evaluation the low control value from a particular plate was subtracted from the high control value as well as from all 80 “compound values” of the corresponding plate. The residual activity (in %) for each well of a particular plate was calculated by using the following formula: Res. Activity (%)=100×[(cpm of compound−low control)/(high control−low control)]
(§8) The residual activities for each concentration and the compound IC50 values were calculated using Quattro Workflow V2.1.0.0 (Quattro Research GmbH, Munich, Germany; www.quattro-research.com). The model used was “Sigmoidal response (variable slope)” with parameters “top” fixed at 100% and “bottom” at 0%.

A further test concerns the target T2, FAK (Homo sapiens, UniProt Q05397).
T2 construct: host or cells: Sf9 insect cells (baculovirus)
Briefly: Radiometric protein kinase assay, FAK. As to conditions: 1 μM ATP; read-out: Inhibitory activity (IC50:μM) FAK.
Description: as §1, §2, §3, §4, §5, §6, §7, §8

The target of a further test is T3, ERBB2 (Homo sapiens, UniProt P04626).
T3 construct: host or cells: Sf9 insect cells (baculovirus)
T3 sequence (P04626 23-1255): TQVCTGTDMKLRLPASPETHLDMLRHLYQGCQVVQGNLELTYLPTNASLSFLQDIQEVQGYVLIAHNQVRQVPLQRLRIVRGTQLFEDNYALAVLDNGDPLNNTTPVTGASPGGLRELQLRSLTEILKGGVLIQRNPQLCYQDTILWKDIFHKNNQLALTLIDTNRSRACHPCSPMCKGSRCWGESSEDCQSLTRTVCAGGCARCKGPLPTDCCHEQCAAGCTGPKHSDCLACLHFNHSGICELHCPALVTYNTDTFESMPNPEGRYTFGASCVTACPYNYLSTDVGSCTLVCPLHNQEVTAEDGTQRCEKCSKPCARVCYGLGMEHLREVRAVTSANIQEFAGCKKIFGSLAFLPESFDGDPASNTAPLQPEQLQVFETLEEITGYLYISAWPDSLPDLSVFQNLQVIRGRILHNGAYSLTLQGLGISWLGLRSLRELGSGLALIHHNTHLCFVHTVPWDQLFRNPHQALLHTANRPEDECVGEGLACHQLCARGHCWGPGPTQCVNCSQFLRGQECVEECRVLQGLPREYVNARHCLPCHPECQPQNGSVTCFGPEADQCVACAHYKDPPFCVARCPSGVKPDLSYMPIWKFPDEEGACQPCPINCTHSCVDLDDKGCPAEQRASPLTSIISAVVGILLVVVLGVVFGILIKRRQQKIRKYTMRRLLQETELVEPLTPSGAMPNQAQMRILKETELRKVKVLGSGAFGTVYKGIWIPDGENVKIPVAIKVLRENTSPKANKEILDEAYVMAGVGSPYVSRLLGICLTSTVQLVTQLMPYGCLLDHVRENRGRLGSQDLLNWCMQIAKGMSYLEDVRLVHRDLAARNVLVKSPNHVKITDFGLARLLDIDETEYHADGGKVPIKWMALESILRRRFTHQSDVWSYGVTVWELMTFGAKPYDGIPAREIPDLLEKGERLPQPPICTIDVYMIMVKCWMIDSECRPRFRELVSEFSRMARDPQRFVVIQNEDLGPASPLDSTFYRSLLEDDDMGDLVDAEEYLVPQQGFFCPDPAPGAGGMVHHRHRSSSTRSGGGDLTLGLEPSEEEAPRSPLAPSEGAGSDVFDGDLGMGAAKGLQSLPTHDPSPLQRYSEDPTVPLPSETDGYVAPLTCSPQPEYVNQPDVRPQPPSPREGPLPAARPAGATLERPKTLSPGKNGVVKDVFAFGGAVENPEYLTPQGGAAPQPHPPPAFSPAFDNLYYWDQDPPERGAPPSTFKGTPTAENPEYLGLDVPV
Briefly: Radiometric protein kinase assay, ERBB2. As to conditions: 1 μM ATP; read-out: Inhibitory activity (IC50:μM) ERBB2.
Description: as §1
(§9) A radiometric protein kinase assay (^33PanQinase® Activity Assay) was used for measuring the kinase activity of the 24 protein kinases. […]
(§10) The reaction cocktails were incubated at 30° C. for 80 minutes. […] Incorporation of ^33Pi was determined with a microplate scintillation counter (Microbeta Trilux, Wallac).
(§11) The median value of the counts in column 1 (n=8) of each assay plate was defined as “low control”. This value reflects unspecific binding of radioactivity to the plate in the absence of a protein kinase but in the presence of the substrate. […]
(§12) As part of the data evaluation the low control value from a particular plate was subtracted from the high control value as well as from all 80 “compound values” of the corresponding plate. The residual activity (in %) for each well of a particular plate was calculated by using the following formula: Res. Activity (%)=100×[(cpm of compound−low control)/(high control−low control)] […]

In the next test the target is T4, VEGF-R2 (Homo sapiens, UniProt P35968).
T4 construct: host or cells: Sf9 insect cells (baculovirus)
T4 sequence (P35968 20-1356): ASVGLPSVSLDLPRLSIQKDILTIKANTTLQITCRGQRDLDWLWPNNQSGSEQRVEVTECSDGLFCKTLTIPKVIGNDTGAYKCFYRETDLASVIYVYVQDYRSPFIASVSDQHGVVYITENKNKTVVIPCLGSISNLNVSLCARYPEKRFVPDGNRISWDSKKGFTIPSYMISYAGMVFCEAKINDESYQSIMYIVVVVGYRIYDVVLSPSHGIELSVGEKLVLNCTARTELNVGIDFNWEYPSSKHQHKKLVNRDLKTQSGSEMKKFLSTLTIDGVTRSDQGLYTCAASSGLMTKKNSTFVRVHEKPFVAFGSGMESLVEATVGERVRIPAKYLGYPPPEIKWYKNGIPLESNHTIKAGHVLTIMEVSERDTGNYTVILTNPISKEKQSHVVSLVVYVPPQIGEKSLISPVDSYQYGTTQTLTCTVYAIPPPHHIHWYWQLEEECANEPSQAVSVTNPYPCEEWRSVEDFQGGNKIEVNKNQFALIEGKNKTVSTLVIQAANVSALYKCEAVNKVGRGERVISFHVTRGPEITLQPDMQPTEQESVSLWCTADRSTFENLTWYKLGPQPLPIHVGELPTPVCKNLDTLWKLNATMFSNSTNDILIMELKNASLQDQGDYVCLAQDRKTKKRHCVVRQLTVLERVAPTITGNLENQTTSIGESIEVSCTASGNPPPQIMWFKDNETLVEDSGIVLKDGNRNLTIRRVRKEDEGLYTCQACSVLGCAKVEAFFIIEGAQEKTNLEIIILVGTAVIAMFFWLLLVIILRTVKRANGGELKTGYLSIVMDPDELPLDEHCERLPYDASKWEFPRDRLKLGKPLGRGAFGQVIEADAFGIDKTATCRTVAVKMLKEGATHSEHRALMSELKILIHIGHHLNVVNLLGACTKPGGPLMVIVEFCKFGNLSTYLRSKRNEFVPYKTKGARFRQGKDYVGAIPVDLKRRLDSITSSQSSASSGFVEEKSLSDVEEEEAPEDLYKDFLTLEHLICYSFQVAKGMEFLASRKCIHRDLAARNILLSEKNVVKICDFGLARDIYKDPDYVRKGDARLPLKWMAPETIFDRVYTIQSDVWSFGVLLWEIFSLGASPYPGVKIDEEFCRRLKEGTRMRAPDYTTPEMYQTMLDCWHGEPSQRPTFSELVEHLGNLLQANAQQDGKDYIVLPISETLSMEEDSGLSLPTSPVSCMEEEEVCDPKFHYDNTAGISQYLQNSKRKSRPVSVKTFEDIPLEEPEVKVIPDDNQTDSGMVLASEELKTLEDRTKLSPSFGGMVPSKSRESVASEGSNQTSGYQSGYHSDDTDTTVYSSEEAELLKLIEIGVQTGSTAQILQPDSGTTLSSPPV
Description: Radiometric protein kinase assay, VEGF-R2. Conditions: 1 μM ATP; read-out: Inhibitory activity (IC50:μM) VEGF-R2.
Description: as §1, §2, §3, §4, §5, §6, §7, §8

A further test has as its target T5, FLT3 (Homo sapiens, UniProt P36888).
T5 construct: host or cells: Sf9 insect cells (baculovirus)
T5 sequence (P36888 27-993): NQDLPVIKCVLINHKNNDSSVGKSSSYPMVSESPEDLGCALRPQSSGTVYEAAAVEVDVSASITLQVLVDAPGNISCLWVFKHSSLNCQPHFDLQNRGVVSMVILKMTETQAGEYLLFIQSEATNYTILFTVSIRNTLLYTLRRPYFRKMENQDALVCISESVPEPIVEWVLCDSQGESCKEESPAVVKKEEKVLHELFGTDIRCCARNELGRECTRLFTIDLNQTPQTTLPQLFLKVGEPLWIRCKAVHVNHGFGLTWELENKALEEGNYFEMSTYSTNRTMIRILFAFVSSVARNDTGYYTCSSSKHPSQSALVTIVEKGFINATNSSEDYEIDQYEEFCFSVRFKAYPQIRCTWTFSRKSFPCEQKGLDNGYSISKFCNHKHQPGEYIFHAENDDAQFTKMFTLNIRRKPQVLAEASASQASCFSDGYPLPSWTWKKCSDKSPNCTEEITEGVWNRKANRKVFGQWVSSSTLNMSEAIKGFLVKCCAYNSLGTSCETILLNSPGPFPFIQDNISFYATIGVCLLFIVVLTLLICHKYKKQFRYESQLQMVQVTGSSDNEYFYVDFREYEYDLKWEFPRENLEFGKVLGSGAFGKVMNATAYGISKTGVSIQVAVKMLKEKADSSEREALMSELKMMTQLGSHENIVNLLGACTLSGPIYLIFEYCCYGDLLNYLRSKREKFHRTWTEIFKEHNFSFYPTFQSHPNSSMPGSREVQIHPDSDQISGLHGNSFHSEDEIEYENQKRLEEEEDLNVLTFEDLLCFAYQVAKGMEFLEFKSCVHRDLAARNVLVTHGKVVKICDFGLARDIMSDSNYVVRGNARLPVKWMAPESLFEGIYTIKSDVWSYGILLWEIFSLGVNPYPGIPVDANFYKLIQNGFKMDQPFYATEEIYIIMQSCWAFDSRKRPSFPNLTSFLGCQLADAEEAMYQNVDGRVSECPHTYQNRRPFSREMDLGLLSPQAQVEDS
Briefly: Radiometric protein kinase assay, FLT3. As to conditions: 1 μM ATP; read-out: Inhibitory activity (IC50:μM) FLT3.
Description: as §1, §2, §3, §4, §5, §6, §7, §8

A further test deals with T6, INS-R (Homo sapiens, UniProt P06213).
T6 construct: host or cells: Sf9 insect cells (baculovirus)
T6 sequence (P06213 980-1382 limits assumed): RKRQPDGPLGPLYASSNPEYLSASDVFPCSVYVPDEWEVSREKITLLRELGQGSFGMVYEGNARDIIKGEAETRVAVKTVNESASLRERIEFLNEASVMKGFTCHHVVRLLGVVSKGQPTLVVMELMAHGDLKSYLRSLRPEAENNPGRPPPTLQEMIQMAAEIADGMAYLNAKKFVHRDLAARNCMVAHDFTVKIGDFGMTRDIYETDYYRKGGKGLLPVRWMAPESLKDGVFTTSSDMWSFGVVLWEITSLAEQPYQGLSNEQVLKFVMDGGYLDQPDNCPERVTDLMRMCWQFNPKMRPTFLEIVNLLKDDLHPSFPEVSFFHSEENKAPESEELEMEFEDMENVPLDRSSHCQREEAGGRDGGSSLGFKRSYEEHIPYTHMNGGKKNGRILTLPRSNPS
Briefly: Radiometric protein kinase assay, INS-R. As to conditions: 1 μM ATP; read-out: Inhibitory activity (IC50:μM) INS-R.
Description: as §1, §9, §10, §11, §12

The next test concerns the target T7, B-RAF-VE (Homo sapiens, UniProt P15056, V600E).
T7 construct: host or cells: Sf9 insect cells (baculovirus)
Briefly: Radiometric protein kinase assay, B-RAF-VE. As to conditions: 1 μM ATP; read-out: Inhibitory activity (IC50:μM) B-RAF-VE.
Description: as §1, §9, §10, §11, §12

T2 sequence (Q05397 whole entry): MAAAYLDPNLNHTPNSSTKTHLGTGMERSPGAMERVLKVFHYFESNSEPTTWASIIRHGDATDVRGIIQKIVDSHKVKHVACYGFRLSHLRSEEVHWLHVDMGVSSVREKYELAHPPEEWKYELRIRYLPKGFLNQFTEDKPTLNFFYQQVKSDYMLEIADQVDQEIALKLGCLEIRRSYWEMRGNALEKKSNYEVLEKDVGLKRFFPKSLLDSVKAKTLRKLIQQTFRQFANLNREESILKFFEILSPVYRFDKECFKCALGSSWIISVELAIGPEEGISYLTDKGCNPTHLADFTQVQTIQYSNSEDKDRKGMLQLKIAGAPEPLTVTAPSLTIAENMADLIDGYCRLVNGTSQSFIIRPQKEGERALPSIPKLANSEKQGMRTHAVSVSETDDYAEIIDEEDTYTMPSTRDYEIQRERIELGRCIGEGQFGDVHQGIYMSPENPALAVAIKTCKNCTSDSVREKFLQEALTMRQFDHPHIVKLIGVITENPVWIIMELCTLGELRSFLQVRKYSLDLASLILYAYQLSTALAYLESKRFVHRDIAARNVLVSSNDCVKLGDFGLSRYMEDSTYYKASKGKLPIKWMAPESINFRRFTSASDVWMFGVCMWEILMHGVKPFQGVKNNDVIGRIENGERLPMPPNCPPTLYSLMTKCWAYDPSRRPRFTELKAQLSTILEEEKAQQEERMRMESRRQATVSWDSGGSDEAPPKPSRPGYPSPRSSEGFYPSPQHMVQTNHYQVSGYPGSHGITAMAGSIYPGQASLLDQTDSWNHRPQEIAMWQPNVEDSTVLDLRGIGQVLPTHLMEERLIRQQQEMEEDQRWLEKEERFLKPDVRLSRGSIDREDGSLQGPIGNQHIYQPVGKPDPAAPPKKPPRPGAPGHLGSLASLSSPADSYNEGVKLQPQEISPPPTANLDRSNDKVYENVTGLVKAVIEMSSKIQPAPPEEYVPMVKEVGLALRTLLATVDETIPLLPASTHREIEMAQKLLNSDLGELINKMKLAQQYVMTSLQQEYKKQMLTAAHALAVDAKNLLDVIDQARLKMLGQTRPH
T7 sequence (P15056 whole entry V600E): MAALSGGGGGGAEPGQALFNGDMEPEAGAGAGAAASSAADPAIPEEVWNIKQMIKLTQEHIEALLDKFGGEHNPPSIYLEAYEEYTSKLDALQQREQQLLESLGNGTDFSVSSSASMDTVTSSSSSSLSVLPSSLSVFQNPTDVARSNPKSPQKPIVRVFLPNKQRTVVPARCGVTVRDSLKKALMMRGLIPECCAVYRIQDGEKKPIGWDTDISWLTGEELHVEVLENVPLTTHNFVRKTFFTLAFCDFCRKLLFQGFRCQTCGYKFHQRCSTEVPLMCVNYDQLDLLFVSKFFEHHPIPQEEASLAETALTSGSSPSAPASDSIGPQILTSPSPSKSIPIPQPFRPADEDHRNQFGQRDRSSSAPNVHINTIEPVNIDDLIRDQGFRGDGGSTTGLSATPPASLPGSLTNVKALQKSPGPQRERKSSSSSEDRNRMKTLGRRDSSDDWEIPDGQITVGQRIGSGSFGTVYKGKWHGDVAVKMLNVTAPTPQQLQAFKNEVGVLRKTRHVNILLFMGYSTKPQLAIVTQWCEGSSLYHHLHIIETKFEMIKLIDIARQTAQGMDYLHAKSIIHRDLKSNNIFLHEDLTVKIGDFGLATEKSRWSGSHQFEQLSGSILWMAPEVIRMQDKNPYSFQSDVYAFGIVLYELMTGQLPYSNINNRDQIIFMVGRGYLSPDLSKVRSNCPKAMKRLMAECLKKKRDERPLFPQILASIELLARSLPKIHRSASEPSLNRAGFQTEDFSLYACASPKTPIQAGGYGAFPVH

With `COC1CC/C=C/C[C@H](c2ccccc2)OC(=O)c2c(O)cc(O)c(Cl)c2CC(=O)C1` (stereo partly shown) [A-2], the IC50 on Aurora-A was 14 µM; on FAK, 14 µM; on ERBB2 it was 16 µM; on VEGF-R2 it was 19 µM; at FLT3, 23 µM; at INS-R, 36 µM.

Turning to `O=C1Cc2c(Cl)c(O)cc(O)c2C(=O)O[C@H](c2ccccc2)C/C=C/CCC(Cl)C1` (stereo partly shown) [A-3], the IC50 is 9 µM on FAK; 24 µM at ERBB2; 20 µM at VEGF-R2; 23 µM at FLT3; 44 µM on INS-R.

`CC(C)[C@@H]1CC2OC2CC/C=C/C(=O)Cc2c(Cl)c(O)cc(O)c2C(=O)O1` (stereo partly shown) [A-4]: the IC50 is 30 µM on Aurora-A, 37 µM at FAK, 30 µM at VEGF-R2 and 45 µM on FLT3.

As for `O=C1/C=C/CCC2OC2C[C@H](c2ccccc2)OC(=O)c2c(O)cc(O)c(Cl)c2C1` (stereo partly shown) [A-5], the IC50 on Aurora-A worked out at 47 µM; at B-RAF-VE it was 50 µM; on FAK, 38 µM; at VEGF-R2 it was 19 µM.

For the compound `O=C1/C=C/CCC2OC2C[C@@H](Cc2ccccc2)OC(=O)c2c(O)cc(O)cc2C1` (stereo partly shown) [A-6], the IC50 turned out to be 34 µM on FAK, 25 µM on VEGF-R2 and 44 µM at FLT3.

Values taken from US8450305B2, “Macrocyclic compounds useful as inhibitors of kinases and HSP90” (Universite de Strasbourg, priority 2006, dated 2013).
